Results: patent US20260285850A1, “SUBSTITUTED OXAZOLIDINONES AND IMIDAZOLINONES AS HERBICIDES” (FMC CORPORATION, priority 2023, published 2026)

How the values were obtained:
Assay type in all cases: in vivo
[1] = system: oat, wild (wild oat, Avena fatua); assay: Test A preemergence soil spray, visual injury rating 0-100; conditions: 10 days
Outline: (§1)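 Directed preemergence spray onto seeded soil or postemergence spray onto 2-10 cm plants (loam plus sand); compound carried in surfactant-containing non-phytotoxic solvent. Injury rated by eye after 10 d greenhouse growth; 0 = no effect, 100 = complete control.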

[2] = system: green foxtail (Setaria viridis); assay: as above; conditions: 10 days
Outline: as §1

[3] = system: palmer (palmer amaranth, palmer pigweed, Amaranthus palmeri); assay: as above; conditions: 10 days
Outline: as §1

[4] = system: blackgrass (Alopecurus myosuroides); assay: as above; conditions: 10 days
Outline: as §1

[5] = system: ryegrass, Italian (italian ryegrass, Lolium multiflorum); assay: as above; conditions: 10 days
Outline: as §1

[6] = system: corn (Zea mays); assay: as above; conditions: 10 days
Outline: as §1

[7] = system: kochia (Bassia scoparia); assay: as above; conditions: 62 g ai/ha, 10 days, 0 = no effect, 100 = complete control
Outline: as §1

[8] = system: soybean (Glycine max); assay: as above; conditions: 10 days
Outline: as §1

[9] = system: barnyardgrass (Echinochloa crus-galli); assay: as above; conditions: 10 days
Outline: as §1

[10] = system: wheat (Triticum aestivum); assay: as above; conditions: 10 days
Outline: as §1

[11] = system: ragweed (common ragweed, Ambrosia artemisiifolia); assay: as above; conditions: 10 days
Outline: as §1

[12] = system: oat, wild (wild oat, Avena fatua); assay: Test A postemergence application, visual injury rating 0-100
Outline: as §1

[13] = system: green foxtail (Setaria viridis); assay: as above
Outline: as §1

[14] = system: palmer (palmer amaranth, palmer pigweed, Amaranthus palmeri); assay: as above
Outline: as §1

[15] = system: blackgrass (Alopecurus myosuroides); assay: as above
Outline: as §1

[16] = system: ryegrass, Italian (italian ryegrass, Lolium multiflorum); assay: as above
Outline: as §1

[17] = system: corn (Zea mays); assay: as above
Outline: as §1

[18] = system: kochia (Bassia scoparia); assay: as above
Outline: as §1

[19] = system: soybean (Glycine max); assay: as above
Outline: as §1

[20] = system: barnyardgrass (Echinochloa crus-galli); assay: as above
Outline: as §1

[21] = system: wheat (Triticum aestivum); assay: as above
Outline: as §1

[22] = system: ragweed (common ragweed, Ambrosia artemisiifolia); assay: as above
Outline: as §1

[23] = system: galium (catchweed bedstraw, Galium aparine); assay: as above
Outline: as §1

[24] = system: horseweed (Erigeron canadensis); assay: as above
Outline: as §1

[25] = system: barnyardgrass (Echinochloa crusgalli); assay: Test B flooded paddy test, visual plant response rating 0-100; conditions: 250 g ai/ha, Flood, applied to paddy water, evaluated after 13 days
Outline: (§2)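 Paddy-water application: test compounds went directly into water flooded 3 cm above the soil surface, with plants at 2 leaves. After a 13-day greenhouse period, responses were judged by eye relative to controls; a dash marks an untested entry.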

[26] = system: sedge, umbrella (small-flower umbrella sedge, Cyperus difformis); assay: as above; conditions: 250 g ai/ha, Flood, applied to paddy water, evaluated after 13 days
Outline: as §2

[27] = system: rice (Oryza sativa); assay: as above; conditions: 250 g ai/ha, Flood, applied to paddy water, evaluated after 13 days
Outline: as §2

[28] = system: ducksalad (Heteranthera limosa); assay: as above; conditions: 250 g ai/ha, Flood, applied to paddy water, evaluated after 13 days
Outline: as §2

[29] = 62 g ai/ha, 0 = no effect, 100 = complete control
[30] = 62 g ai/ha, postemergence, 10 days, 0 = no effect, 100 = complete control
[31] = Postemergence, 16 g ai/ha, greenhouse 10 days, 0 no effect, 100 complete control

SMILES: COC(=O)C1C=CC(NC(=O)C2(C)CN(c3cc(C)cc(C)c3)C(=O)O2)C1 (stereo not drawn) [Compound 115]
- Oat, Wild plant response rating ([1]; 16 g ai/ha, 0 to 100 scale): 0
- Oat, Wild plant response rating (0-100) [1, 29]: 40
- Foxtail, Green plant response rating ([2]; 16 g ai/ha, 0 to 100 scale): 0
- Foxtail, Green plant response rating (0-100) [2, 29]: 30
- Pigweed, Palmer plant response rating ([3]; 16 g ai/ha, 0 to 100 scale): 20
- Pigweed, Palmer plant response rating (0-100) [3, 29]: 90
- Blackgrass plant response rating ([4]; 16 g ai/ha, 0 to 100 scale): 20
- Blackgrass plant response rating (0-100) [4, 29]: 60
- Ryegrass, Italian plant response rating ([5]; 16 g ai/ha, 0 to 100 scale): 10
- Ryegrass, Italian plant response rating (0-100) [5, 29]: 30
- Corn plant response rating ([6]; 16 g ai/ha, 0 to 100 scale): 0
- Corn plant response rating (0-100) [6, 29]: 20
- Kochia plant response rating (0-100) [7]: 100
- Soybean plant response rating ([8]; 16 g ai/ha, 0 to 100 scale): 0
- Soybean plant response rating (0-100) [8, 29]: 0
- Barnyardgrass plant response rating ([9]; 16 g ai/ha, 0 to 100 scale): 30
- Barnyardgrass plant response rating (0-100) [9, 29]: 100
- Wheat plant response rating ([10]; 16 g ai/ha, 0 to 100 scale): 0
- Wheat plant response rating (0-100) [10, 29]: 30
- Ragweed plant response rating ([11]; 16 g ai/ha, 0 to 100 scale): 0
- Ragweed plant response rating (0-100) [11, 29]: 0
- Oat, Wild plant response rating (0-100) [12, 30]: 90
- Oat, Wild plant response rating (0 to 100 scale) [12, 31]: 80
- Foxtail, Green plant response rating (0-100) [13, 30]: 30
- Foxtail, Green plant response rating (0 to 100 scale) [13, 31]: 10
- Pigweed, Palmer plant response rating (0-100) [14, 30]: 10
- Pigweed, Palmer plant response rating (0 to 100 scale) [14, 31]: 10
- Blackgrass plant response rating (0-100) [15, 30]: 90
- Blackgrass plant response rating (0 to 100 scale) [15, 31]: 70
- Ryegrass, Italian plant response rating (0-100) [16, 30]: 70
- Ryegrass, Italian plant response rating (0 to 100 scale) [16, 31]: 40
- Corn plant response rating (0-100) [17, 30]: 100
- Corn plant response rating (0 to 100 scale) [17, 31]: 60
- Kochia plant response rating (0-100) [18, 30]: 70
- Kochia plant response rating (0 to 100 scale) [18, 31]: 0
- Soybean plant response rating (0-100) [19, 30]: 60
- Soybean plant response rating (0 to 100 scale) [19, 31]: 40
- Barnyardgrass plant response rating (0-100) [20, 30]: 100
- Barnyardgrass plant response rating (0 to 100 scale) [20, 31]: 70
- Wheat plant response rating (0-100) [21, 30]: 80
- Wheat plant response rating (0 to 100 scale) [21, 31]: 30
- Ragweed plant response rating (0-100) [22, 30]: 30
- Ragweed plant response rating (0 to 100 scale) [22, 31]: 0
- Galium plant response rating (0-100) [23, 30]: 70
- Galium plant response rating (0 to 100 scale) [23, 31]: 60
- Horseweed plant response rating (0-100) [24, 30]: 0
- Horseweed plant response rating (0 to 100 scale) [24, 31]: 10
- Plant response rating, Barnyardgrass (0 to 100 scale, 0 is no effect and 100 is complete control) [25]: 65
- Plant response rating, Sedge, Umbrella (0 to 100 scale, 0 is no effect and 100 is complete control) [26]: 0
- Plant response rating, Rice (0 to 100 scale, 0 is no effect and 100 is complete control) [27]: 25
- Plant response rating, Ducksalad (0 to 100 scale, 0 is no effect and 100 is complete control) [28]: 80
